Measurements reported in patent publication US8338480B2, “Combination treatment of metabolic disorders” (Wellstat Therapeutics Corporation, priority 2006, dated 2012).
Structures can show the parent of a compound that is named as a salt.

What was measured:
Male C57B1/6 mice = experiment: Food intake and body weight of male C57Bl/6 mice under restricted feeding (Example 3); format: in vivo; conditions: for Post-treatment Food Intake (5 Hour): 5 hour meal; for Change in Body weight % / Change in Body weight (grams ± SEM) / Post-treatment Body weight: restricted feeding
Protocol: Animals. […] Food was withheld for the remainder of each day. Because of the restricted feeding time, the mice eat less than under ad libitum food availability. Therefore, reduction of food intake in this model requires a drug effect sufficient to overcome the hunger stimulus provided by subnormal daily food intake. Drug Administration. Groups of 10 mice each (individually weighed and marked, divided into 5/cage and trained and monitored as above; were dosed once per day with Compound BI (100 mg/kg), rosiglitazone (3 mg/kg), both drugs, or vehicle by oral gavage at 8 AM for four consecutive days. Comparator groups receiving appetite modulators not suitable for oral dosing (PYY and cerulenin) received intraperitoneal injections at 8 AM for four consecutive days. […] [table]

db/db mice = experiment: Serum glucose in db/db mice treated for two weeks (Example 6); format: in vivo; conditions: for Glucose / Glucose (% Control): two weeks daily oral; for Glucose (% Control): vehicle = 100
Protocol: A minimum of 7 days was allowed for adaptation after arrival.
Treatment cohorts were given daily oral doses of vehicle, Compound BI (100 mg/kg/day), rosiglitazone (RSG; 3 mg/kg/day) or a combination of the two drugs for 2 weeks. At the end of the treatment period epididymal fat pads were excised, frozen and subsequently processed for measurement of UCP1 by Western Blot analysis. Blood samples were also collected prior to sacrifice via the retro-orbital plexus, and processed and analyzed for serum glucose (AniLytics, Inc.; Gaithersburg Md.).

[1] = Rosiglitazone 3 mg/kg oral once per day
[2] = Compound BI 100 mg/kg oral once per day

Row | Structure (SMILES) | Post-treatment Food Intake (5 Hour) (Male C57B1/6 mice; [1]) | Change in Body weight % (Male C57B1/6 mice; [1]) | Change in Body weight (grams ± SEM) (Male C57B1/6 mice; [1]) | Post-treatment Body weight (Male C57B1/6 mice; [1]) | Glucose (db/db mice; RSG 3 mg/kg) | Glucose (% Control) (db/db mice; RSG 3 mg/kg) | Post-treatment Food Intake (5 Hour) (Male C57B1/6 mice; [2]) | Change in Body weight % (Male C57B1/6 mice; [2]) | Change in Body weight (grams ± SEM) (Male C57B1/6 mice; [2]) | Post-treatment Body weight (Male C57B1/6 mice; [2]) | serum glucose (in words) (db/db mice; 2 weeks, Compound BI 100 mg/kg/day, RSG 3 mg/kg/day, alone or combined) | Glucose (db/db mice; Cpd. BI 100 mg/kg) | Glucose (% Control) (db/db mice; Cpd. BI 100 mg/kg)
1 | CN(CCOc1ccc(CC2SC(=O)NC2=O)cc1)c1ccccn1 (stereo not shown) [RSG, rosiglitazone maleate, reference compound] | 2.21 ± 0.15 grams | −0.55 ± 0.44% | −0.12 ± 0.09 grams | 20.76 ± 0.39 grams | 403.7 ± 28.0 mg/dL | 59 ± 4 % Control |  |  |  |  |  |  | 
2 | Cc1cccc(C)c1COc1cccc(C(=O)CCC(=O)O)c1 [Compound BI, 4-(3-(2,6-Dimethylbenzyloxy)phenyl)-4-oxobutyric acid] |  |  |  |  |  |  | 2.00 ± 0.18 grams | −1.90 ± 0.73% | −0.40 ± 0.15 grams | 20.57 ± 0.51 grams | reduced serum glucose relative to vehicle treated control animals | 302.0 ± 40.7 mg/dL | 44 ± 6 % Control
